# From patent publication US10165776B2, “Substituted pyrazolylpyrazole derivative and use of same as herbicide” (KYOYU AGRI CO., LTD., priority 2015, dated 2019)
# Experiments:
# Format in all cases: in vivo
# Echinochloa crus-galli = experiment: Paddy herbicidal activity test; conditions: irrigated pot, treated at 3.5 leaf stage of Echinochloa crus-galli, 30 days at 30° C.
# Method: (§1) Rice paddy soil was filled into a 1/10000 are pot followed by the addition of suitable amounts of water and chemical fertilizer, kneading, seeding with Echinochloa crus-galli, Monochoria vaginalis and Scirpus juncoides and maintaining in an irrigated state at a water depth of 3 cm. Wettable powders of Target Compound (I) shown in Table 1 prepared in compliance with the preparation examples were diluted with a suitable amount of water, rice plants in the 2.0 leaf stage were transplanted during 3.5 leaf stage of Echinochloa crus-galli, and treated by dropping in chemical in the prescribed amount per 10 are using a pipette. After treating for 30 days in a glass greenhouse at an average atmospheric temperature of 30° C., the herbicidal efficacy thereof was investigated. Evaluation of herbicidal efficacy was carried out by comparing growth inhibition rate (%) with an untreated group, while evaluation of phytotoxicity was carried out by comparing growth inhibition rate (%) with the state of a complete eradication group, and were evaluated at 11 levels indicated below.
# Monochoria vaginalis = experiment: Paddy herbicidal activity test; conditions: irrigated pot, treated at 3.5 leaf stage of Echinochloa crus-galli, 30 days at 30° C.
# Method: as §1
# Scirpus juncoides = experiment: Paddy herbicidal activity test; conditions: irrigated pot, treated at 3.5 leaf stage of Echinochloa crus-galli, 30 days at 30° C.
# Method: as §1
# Oryza sativa = experiment: Paddy herbicidal activity test, phytotoxicity to transplanted rice; conditions: rice transplanted at 2.0 leaf stage, 30 days at 30° C.
# Method: as §1
# Amaranthus retroflexus [1] = experiment: Farming soil treatment test; conditions: soil surface spray prior to weed growth, 30 days at 30° C.
# Method: (§2) Field soil was filled into a 1/6000 are pot followed by seeding with Digitaria ciliaris, Chenopodium album and Amaranthus retroflexus and covering with soil. Wettable powders of compounds of formula (I) shown in Table 1 prepared in compliance with the preparation examples were diluted with water to the prescribed amount of chemical and uniformly sprayed onto each soil surface layer using 100 liters of sprayed water per 10 are prior to weed growth following seeding. After treating for 30 days in a glass greenhouse at an average atmospheric temperature of 30° C., the herbicidal efficacy thereof was investigated. Evaluation of herbicidal efficacy was carried out in the same manner as the above-mentioned Test Example 1.
# Chenopodium album [2] = experiment: Farming soil treatment test; conditions: soil surface spray prior to weed growth, 30 days at 30° C.
# Method: as §2
# Digitaria ciliaris [3] = experiment: Farming soil treatment test; conditions: soil surface spray prior to weed growth, 30 days at 30° C.
# Method: as §2
# Amaranthus retroflexus [4] = experiment: Weed foliar treatment test (Test 3, 1.0 to 2.0 leaf stage); conditions: foliar spray at 1.0 to 2.0 leaf stage of Digitaria ciliaris, 3 weeks at 25° C.
# Method: (§3) Soil was filled into a 1/6000 are pot followed by seeding with Digitaria ciliaris, Chenopodium album and Amaranthus retroflexus, covering with soil, and cultivating in a glass greenhouse at an average atmospheric temperature of 25° C. Wettable powders of Target Compound (I) shown in Table 1 prepared in compliance with the preparation examples were diluted with water to the prescribed amount of chemical and uniformly sprayed onto the weeds using 150 liters of sprayed water per 10 are when Digitaria ciliaris had grown to the 1.0 to 2.0 leaf stage. After treating for 3 weeks in a glass greenhouse at an average atmospheric temperature of 25° C., the herbicidal efficacy thereof was investigated. Evaluation of herbicidal efficacy was carried out in the same manner as the above-mentioned Test Example 1.
# Chenopodium album [5] = experiment: as above; conditions: foliar spray at 1.0 to 2.0 leaf stage of Digitaria ciliaris, 3 weeks at 25° C.
# Method: as §3
# Digitaria ciliaris [6] = experiment: as above; conditions: foliar spray at 1.0 to 2.0 leaf stage of Digitaria ciliaris, 3 weeks at 25° C.
# Method: as §3
# Digitaria ciliaris [7] = experiment: Weed foliar treatment test (Test 4, 4.0 to 5.0 leaf stage); conditions: 10 g a.i./10 a; foliar spray at 4.0 to 5.0 leaf stage of Digitaria ciliaris (plant height 10 cm to 15 cm); 20 days at 25° C.
# Method: (§4) Field soil was filled into a 1/4500 are pot followed by seeding with Digitaria ciliaris and Galinsoga parviflora, covering with soil and cultivating in a glass greenhouse at an average atmospheric temperature of 25° C. Wettable powders of Target Compound (I) shown in Table 1 prepared in compliance with the preparation examples were diluted with water to the prescribed amount of chemical and uniformly sprayed onto the weeds using 100 liters of sprayed water per 10 are when Digitaria ciliaris had grown to the 4.0 to 5.0 leaf stage (plant height: 10 cm to 15 cm). After treating for 20 days in a glass greenhouse at an average atmospheric temperature of 25° C., the herbicidal efficacy thereof was investigated. Evaluation of herbicidal efficacy was carried out in the same manner as the above-mentioned Test Example 1.
# Galinsoga parviflora = experiment: as above; conditions: 10 g a.i./10 a; foliar spray at 4.0 to 5.0 leaf stage of Digitaria ciliaris (plant height 10 cm to 15 cm); 20 days at 25° C.
# Method: as §4
SMILES,"herbicidal efficacy, Echinochloa crus-galli (Echinochloa crus-galli; 1 g a.i./10 a)","herbicidal efficacy, Echinochloa crus-galli (Echinochloa crus-galli; 5 g a.i./10 a)","herbicidal efficacy, Monochoria vaginalis (Monochoria vaginalis; 1 g a.i./10 a)","herbicidal efficacy, Monochoria vaginalis (Monochoria vaginalis; 5 g a.i./10 a)","herbicidal efficacy, Scirpus juncoides (Scirpus juncoides; 1 g a.i./10 a)","herbicidal efficacy, Scirpus juncoides (Scirpus juncoides; 5 g a.i./10 a)","phytotoxicity, Oryza sativa (Oryza sativa; 1 g a.i./10 a)","phytotoxicity, Oryza sativa (Oryza sativa; 5 g a.i./10 a)","herbicidal efficacy, Amaranthus retroflexus (Amaranthus retroflexus [1]; 5 g a.i./10 a)","herbicidal efficacy, Amaranthus retroflexus (Amaranthus retroflexus [1]; 10 g a.i./10 a)","herbicidal efficacy, Chenopodium album (Chenopodium album [2]; 5 g a.i./10 a)","herbicidal efficacy, Chenopodium album (Chenopodium album [2]; 10 g a.i./10 a)","herbicidal efficacy, Digitaria ciliaris (Digitaria ciliaris [3]; 5 g a.i./10 a)","herbicidal efficacy, Digitaria ciliaris (Digitaria ciliaris [3]; 10 g a.i./10 a)","herbicidal efficacy, Amaranthus retroflexus (Amaranthus retroflexus [4]; 5 g a.i./10 a)","herbicidal efficacy, Amaranthus retroflexus (Amaranthus retroflexus [4]; 10 g a.i./10 a)","herbicidal efficacy, Chenopodium album (Chenopodium album [5]; 5 g a.i./10 a)","herbicidal efficacy, Chenopodium album (Chenopodium album [5]; 10 g a.i./10 a)","herbicidal efficacy, Digitaria ciliaris (Digitaria ciliaris [6]; 5 g a.i./10 a)","herbicidal efficacy, Digitaria ciliaris (Digitaria ciliaris [6]; 10 g a.i./10 a)",also measured
N#Cc1cnn(-c2nn3c(c2Cl)CCCC3)c1NC(=O)Cc1ccc(F)cc1 [Compound 15],10 (10: 100%),10 (10: 100%),10 (10: 100%),10 (10: 100%),9 (9: 90% to less than 100%),10 (10: 100%),1 (1: 10% to less than 20%),1 (1: 10% to less than 20%),10 (10: 100%),10 (10: 100%),10 (10: 100%),10 (10: 100%),9 (9: 90% to less than 100%),10 (10: 100%),10 (10: 100%),10 (10: 100%),10 (10: 100%),10 (10: 100%),10 (10: 100%),10 (10: 100%),"herbicidal efficacy, Digitaria ciliaris (Digitaria ciliaris [7]): 10 (10: 100%); herbicidal efficacy, Galinsoga parviflora (Galinsoga parviflora): 10 (10: 100%)"
N#Cc1cnn(-c2nn3c(c2Cl)CCCC3)c1NC(=O)CCc1ccccc1 [Compound 19],9 (9: 90% to less than 100%),10 (10: 100%),10 (10: 100%),10 (10: 100%),10 (10: 100%),10 (10: 100%),0 (0 (exponent): 0% to less than 10% (growth inhibition rate)),1 (1: 10% to less than 20%),10 (10: 100%),10 (10: 100%),10 (10: 100%),10 (10: 100%),10 (10: 100%),10 (10: 100%),10 (10: 100%),10 (10: 100%),10 (10: 100%),10 (10: 100%),10 (10: 100%),10 (10: 100%),"herbicidal efficacy, Digitaria ciliaris (Digitaria ciliaris [7]): 10 (10: 100%); herbicidal efficacy, Galinsoga parviflora (Galinsoga parviflora): 10 (10: 100%)"
"O=C(Nc1c([N+](=O)[O-])cnn1-c1nn2c(c1Cl)CCCC2)c1ccccc1 [Control agent 2.19, reference compound]",3 (3: 30% to less than 40%),4 (4: 40% to less than 50%),1 (1: 10% to less than 20%),1 (1: 10% to less than 20%),1 (1: 10% to less than 20%),2 (2: 20% to less than 30%),1 (1: 10% to less than 20%),1 (1: 10% to less than 20%),1 (1: 10% to less than 20%),3 (3: 30% to less than 40%),3 (3: 30% to less than 40%),4 (4: 40% to less than 50%),0 (0 (exponent): 0% to less than 10% (growth inhibition rate)),2 (2: 20% to less than 30%),4 (4: 40% to less than 50%),4 (4: 40% to less than 50%),4 (4: 40% to less than 50%),5 (5: 50% to less than 60%),1 (1: 10% to less than 20%),2 (2: 20% to less than 30%),"herbicidal efficacy, Digitaria ciliaris (Digitaria ciliaris [7]): 1 (1: 10% to less than 20%); herbicidal efficacy, Galinsoga parviflora (Galinsoga parviflora): 3 (3: 30% to less than 40%)"
